Test results from PubChem BioAssay (NCI).
Values joined by “and” are separate entries in the source; they are usually repeats but may differ in a detail not shown here. Equal entries are not always repeated.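 A five-concentration, 48-hour dose response in 96-well plates underlies each endpoint, interpolated linearly between surrounding concentrations. At the GI50, growth is halved. At the TGI there is no net growth.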

What was measured:
Experiment in all cases: NCI anticancer screen, dose series, 48 h
786-0 renal = tested on: 786-0 renal
CAKI-1 renal = tested on: CAKI-1 renal
KM12 colon = tested on: KM12 colon
M14 melanoma = tested on: M14 melanoma
OVCAR-4 ovarian = tested on: OVCAR-4 ovarian
OVCAR-5 ovarian = tested on: OVCAR-5 ovarian
SF-268 CNS = tested on: SF-268 CNS
SW-620 colon = tested on: SW-620 colon
TK-10 renal = tested on: TK-10 renal
UACC-257 melanoma = tested on: UACC-257 melanoma

| Compound | GI50 (786-0 renal) | TGI (786-0 renal) | GI50 (CAKI-1 renal) | TGI (CAKI-1 renal) | GI50 (KM12 colon) | TGI (KM12 colon) | GI50 (M14 melanoma) | TGI (M14 melanoma) [µM] | GI50 (OVCAR-4 ovarian) | TGI (OVCAR-4 ovarian) [µM] | GI50 (OVCAR-5 ovarian) | TGI (OVCAR-5 ovarian) [µM] | GI50 (SF-268 CNS) | TGI (SF-268 CNS) [µM] | GI50 (SW-620 colon) | TGI (SW-620 colon) | GI50 (TK-10 renal) | TGI (TK-10 renal) | GI50 (UACC-257 melanoma) | TGI (UACC-257 melanoma) |
| --- | --- | --- | --- | --- | --- | --- | --- | --- | --- | --- | --- | --- | --- | --- | --- | --- | --- | --- | --- | --- |
| Cn1cc(-c2ccc(CNc3cc(-c4cnc5cc(OCCCN6CCCC6)ccn45)ncn3)cc2)cn1 | 1.49 µM | 2.91 µM | 1.65 µM | 3.15 µM | 1.86 µM | 3.68 µM | 1.74 µM | 3.2 | 1.88 µM | 3.93 | 2.04 µM | 4.16 | 1.9 µM | 4.19 | 1.61 µM | 3.17 µM | 23.7 µM | 39.1 µM | 2.23 µM | 5.5 µM |
| Cn1cc(-c2ccc3c(c2)CCN3C(=O)Cc2cccc(C(F)(F)F)c2)c2c(N)ncnc21 | 2.26 µM | 17.7 µM | 1.52 µM | 40.3 µM | 0.401 µM | 15.5 µM | 1.7 µM | 16.2 | 2.41 µM | > 100 | 12.2 µM | 30.2 | 9 µM | 26.5 | 4.89 µM | 20.8 µM | 6.09 µM | 39 µM | 5.37 µM | 24.3 µM |
| Fc1ccc(Nc2nccc(-c3c(-c4ccc(C(F)(F)F)cc4)nn4ncccc34)n2)cc1F | > 25 µM | > 25 µM | > 25 µM | > 25 µM | > 25 µM | > 25 µM | > 25 µM | > 25 | > 25 µM | > 25 | > 25 µM | > 25 | > 25 µM | > 25 | > 25 µM | > 25 µM | > 25 µM | > 25 µM | > 25 µM | > 25 µM |
| CC(C)(Br)C(=O)/C=C/c1ccccc1 | – | 2.22 µM | – | 17.3 µM | – | 43.6 µM | – | 4.88 | – | 5.58 | – | 19.7 | – | 51.2 | – | 6.79 µM | – | 37.9 µM | – | 28.8 µM |
| CCCCCc1c(C)[nH]c(/C=C2\N=C(c3ccc[nH]3)C=C2Oc2ccc(Cl)cc2)c1C | 0.0763 µM and 0.0461 µM | 0.326 µM and 0.512 µM | 0.148 µM and 0.0343 µM | 0.542 µM and 0.312 µM | 0.04 µM and 0.0133 µM | 1.5 µM and 0.614 µM | 0.0789 µM and 0.0203 µM | – | 0.0527 µM and 0.0228 µM | > 100 | 0.142 µM and 0.0383 µM | 4.26 | 0.0767 µM and 0.0338 µM | 3.18 | 0.0387 µM and 0.0228 µM | 2.58 µM and 1.29 µM | 0.413 µM and 0.0539 µM | 5.45 µM and 0.921 µM | 0.28 µM and 0.0706 µM | 3 µM and 2.78 µM |
| N/N=C(\Cc1ccccc1)NN=C(N)N | – | > 100 µM | – | > 100 µM | – | > 100 µM | – | > 100 | – | > 100 | – | > 100 | – | > 100 | – | > 100 µM | – | > 100 µM | – | > 100 µM |
| C/C(=N\NC(N)=O)C(CN(C)C)C(c1ccccc1)c1c(O)c2ccccc2oc1=O (centres undefined) | – | > 100 µM | – | > 100 µM | – | > 100 µM | – | > 100 | – | > 100 | – | > 100 | – | > 100 | – | > 100 µM | – | > 100 µM | – | > 100 µM |
| COc1cc2cc(Oc3ccc(NC(=O)c4ccc(Cl)c(C(F)(F)F)c4)cc3)c(C)nc2cc1OC | 12.1 µM | > 100 µM | 4.19 µM | 46.2 µM | 12.3 µM | > 100 µM | 9.55 µM | > 100 | 5.58 µM | > 100 | 55.9 µM | > 100 | 37.2 µM | > 100 | 33.7 µM | > 100 µM | 12.4 µM | > 100 µM | 18.2 µM | 97.5 µM |
| Fc1ccc(Nc2nc(NCCNc3ccnc4cc(Cl)ccc34)nc(N3CCOCC3)n2)cc1 | 3.35 µM | 15.3 µM | 5.59 µM | 19.5 µM | 5.44 µM | 18.7 µM | 1.94 µM | 3.66 | 10.7 µM | 23.1 | 17.6 µM | 32.1 | 6.85 µM | 20.5 | 4.21 µM | 16.4 µM | 10.3 µM | 22.7 µM | 1.9 µM | 3.65 µM |
| CN(C)c1ccc(N=Nc2c([O-])ccc3ccccc23)cc1.[C-]#[O+].[C-]#[O+].[Ir] | 26.4 µM | > 56.3 µM | 16.2 µM | 33.5 µM | > 100 µM | > 100 µM | 21.9 µM | 46.6 | 25.4 µM | 47.8 | > 42.1 µM | > 58.7 | 26.9 µM | 76.6 | 1.48 µM | 25.7 µM | 23.8 µM | 51.7 µM | 5.71 µM | 36 µM |
| CCN1C(=O)N(CC)C2C1NN=c1s/c(=C3\C(=O)N(C)c4ccccc43)c(=O)n12 (centres undefined) | 1.94 µM | > 100 µM | 0.448 µM | 97.4 µM | 0.647 µM | > 100 µM | 0.803 µM | > 58.3 | 8.51 µM | > 100 | 3.3 µM | > 100 | 10.8 µM | > 100 | 0.58 µM | > 100 µM | 11.2 µM | > 74.3 µM | 4.2 µM | > 100 µM |
| CC(C)OC(=O)c1ccc2[nH]c(O)c(C(=Nc3ccc(N(C)C(=O)CN4CCN(C)CC4)cc3)c3ccccc3)c2c1 | 0.327 µM | 1.97 µM | 0.0952 µM | 1.12 µM | 0.0251 µM | 1.56 µM | 0.451 µM | 1.9 | 1.02 µM | 2.48 | 1.51 µM | 3.22 | 0.387 µM | 2 | 0.369 µM | 1.62 µM | 0.561 µM | 2.52 µM | 1.54 µM | 3.57 µM |
| CN(C)C(=O)C1CCC(=C2C(=O)OC(C)(C)OC2=O)N1C (centres undefined) | – | > 100 µM | – | > 100 µM | – | > 100 µM | – | > 100 | – | > 100 | – | > 100 | – | > 100 | – | > 100 µM | – | > 100 µM | – | > 100 µM |
| CCOC(=O)N1CCN(S(=O)(=O)c2oc(-c3ccc(Cl)cc3)nc2C#N)CC1 | 1.65 µM | 3.24 µM | 1.75 µM | 3.14 µM | 10.5 µM | 35.6 µM | 1.59 µM | 3.67 | 2.36 µM | 5.5 | 3.92 µM | 13.3 | 2.56 µM | 6.75 | 1.69 µM | 3.75 µM | 1.8 µM | 3.29 µM | 2.37 µM | 7.71 µM |
| O=C(Nc1cc(Cl)c(Cl)cc1Cl)C(=O)C(C(=O)c1ccc(Cl)c(Cl)c1)C1OC(=O)c2ccccc21 (centres undefined) | – | 27.3 µM | – | 46.3 µM | – | 33.6 µM | – | 27.7 | – | 77.8 | – | 23.6 | – | 41.8 | – | 38.3 µM | – | 52 µM | – | 27.5 µM |
| COc1ccc(/C=C2\CCCC3=C2NC(C)=NC3c2ccc(OC)c(OC)c2)cc1OC (centres undefined) | 33.7 µM | > 100 µM | 21.4 µM | > 100 µM | 61.2 µM | > 100 µM | 18.6 µM | > 100 | 12.4 µM | > 100 | 71 µM | > 100 | 21 µM | > 100 | 7.69 µM | > 100 µM | 12.3 µM | 74.7 µM | 10.9 µM | > 100 µM |
| O=C(O)c1c[nH]cc1C(=O)O | – | > 100 µM | – | > 100 µM | – | > 100 µM | – | > 100 | – | > 100 | – | > 100 | – | > 100 | – | > 100 µM | – | > 100 µM | – | > 100 µM |
| CCc1c[nH]c2ncnc(N3CC[C@@](N)(CNC(=O)c4ccc(F)cc4F)C3)c12 | 25.9 µM | > 85.5 µM | 18.7 µM | > 89.8 µM | 12.6 µM | > 100 µM | 54.9 µM | > 100 | 77.2 µM | > 100 | 80 µM | > 100 | 38 µM | > 100 | 31.3 µM | > 100 µM | 22.2 µM | > 83.9 µM | 34.5 µM | > 100 µM |
| COc1cc(Oc2c(O)c(C)c(OC)c(C(C)=O)c2O)c(C(C)=O)c(O)c1C | – | > 100 µM | – | > 100 µM | – | > 100 µM | – | > 100 | – | > 100 | – | > 100 | – | > 100 | – | > 100 µM | – | 86.7 µM | – | > 100 µM |
| CC1=NN(C(=O)c2ccc(Cl)cc2)C(=O)/C1=C/c1cccc([N+](=O)[O-])c1 | – | > 100 µM | – | > 100 µM | – | > 100 µM | – | > 100 | – | > 100 | – | > 100 | – | > 100 | – | > 100 µM | – | > 100 µM | – | > 100 µM |
| COc1ccc2c(c1)nc(N)c1c3cccnc3cn21 | 0.115 µM | 16.7 µM | 0.0407 µM | 16.3 µM | 0.0473 µM | > 41.2 µM | 0.039 µM | 27.9 | 0.294 µM | > 100 | 0.438 µM | > 100 | 0.0917 µM | 76.9 | 0.0373 µM | 14.5 µM | 0.252 µM | 19.9 µM | 0.064 µM | 26.7 µM |
| O=[N+]([O-])c1ccc(CS(=O)Cc2ccccc2)cc1 (centres undefined) | – | > 100 µM | – | > 100 µM | – | > 100 µM | – | > 100 | – | > 100 | – | > 100 | – | > 100 | – | > 100 µM | – | > 100 µM | – | > 100 µM |
